Results taken from US5972898A, “3',3-N-bis-substituted macrolide LHRH antagonists” (Abbott Laboratories, priority 1998, dated 1999).

Target: T1, LHRH rat pituitary receptor (Rattus norvegicus, UniProt P30969)
T1 construct: from tissue; host or cells: rat pituitary
T1 sequence (P30969 1-327): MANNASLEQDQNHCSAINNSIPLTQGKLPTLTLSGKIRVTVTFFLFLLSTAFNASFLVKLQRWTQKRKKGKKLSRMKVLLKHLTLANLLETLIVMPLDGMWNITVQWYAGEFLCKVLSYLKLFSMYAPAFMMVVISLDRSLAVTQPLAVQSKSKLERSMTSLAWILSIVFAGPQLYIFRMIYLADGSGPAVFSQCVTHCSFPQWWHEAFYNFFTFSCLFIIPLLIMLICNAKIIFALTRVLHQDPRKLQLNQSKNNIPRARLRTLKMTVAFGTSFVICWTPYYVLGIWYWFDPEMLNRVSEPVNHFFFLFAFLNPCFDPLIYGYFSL
Assay: LHRH rat pituitary receptor binding (pKI)
Details: in vitro; for Ki: read-out: pKI (receptor binding affinity) (converted)
Experimental: Representative compounds of the present invention were evaluated in in vitro tests for LHRH rat pituitary receptor binding (pKI) and for LH inhibition from rat pituitary cells for antagonist potency (pA2). […] The receptor binding affinity (pKI) is the negative equilibrium dissociation constants.

Row | Ki | pKI (receptor binding affinity) | Molecule
1 | 1.41 nM | – | CC[C@H]1OC(=O)[C@H](C)[C@@H](O[C@H]2C[C@@](C)(OC)[C@@H](O)[C@H](C)O2)[C@H](C)[C@@H](O[C@@H]2O[C@H](C)C[C@H](N(CC3CC3)CC3CC3)[C@H]2O)[C@](C)(OC)C[C@@H](C)C(=O)[C@H](C)[C@H]2N(CCc3ccc(OC)cc3)C(=O)O[C@]12C [Example 10, 3',3'-N-Bisdesmethyl-3',3'-N-biscyclopropylmethyl-11-deoxy-11-[carboxy-(4-methoxyphenethylamino)]-6-O-methyl-erythromycin A 11,12-(cyclic carbamate)]
2 | – | 8.98 | 3',3'-N-Bisdesmethyl-3'-N-cyclopropylmethyl-3'-N-(4hydroxymethyl-2-furyl)methyl-11-deoxy-11-[carboxy-(3-chloro-4-fluorophenethylamino)]-6-O-methyl-erythromycin A 11,12-(cyclic carbamate) [Example 23]
3 | – | 8.56 | CC[C@H]1OC(=O)[C@H](C)[C@@H](O[C@H]2C[C@@](C)(OC)[C@@H](O)[C@H](C)O2)[C@H](C)[C@@H](O[C@@H]2O[C@H](C)C[C@H](N(CC3CC3)C(C)C)[C@H]2O)[C@](C)(OC)C[C@@H](C)C(=O)[C@H](C)[C@H]2N(CCc3ccc(Cl)cc3)C(=O)O[C@]12C [Example 7, 3',3'-N-Bisdesmethyl-3'-N-cyclopropylmethyl-3'-N-isopropyl-11-deoxy-11-carboxy-(4-chlorophenethylamino)]-6-O-methyl-erythromycin A 11,12-(cyclic carbamate)]
4 | 8.32 nM | – | CCCN(C(C)C)[C@H]1C[C@@H](C)O[C@@H](O[C@@H]2[C@@H](C)[C@H](O[C@H]3C[C@@](C)(OC)[C@@H](O)[C@H](C)O3)[C@@H](C)C(=O)O[C@H](CC)[C@@]3(C)OC(=O)N(CCc4ccc(Cl)cc4)[C@@H]3[C@@H](C)C(=O)[C@H](C)C[C@@]2(C)OC)[C@@H]1O [Example 6, 3',3'-N-Bisdesmethyl-3'-N-isopropyl-3'-N-propyl-11-deoxy-11-[carboxy-(4-chlorophenethylamino)]-6-O-methyl-erythromycin A 11,12-(cyclic carbamate)]
5 | 2.19 nM | – | CC[C@H]1OC(=O)[C@H](C)[C@@H](O[C@H]2C[C@@](C)(OC)[C@@H](O)[C@H](C)O2)[C@H](C)[C@@H](O[C@@H]2O[C@H](C)C[C@H](N(CC3CC3)CC3CC3)[C@H]2O)[C@](C)(OC)C[C@@H](C)C(=O)[C@H](C)[C@H]2N(CCc3ccc(F)cc3)C(=O)O[C@]12C [Example 11, 3',3'-N-Bisdesmethyl-3',3'-N-biscyclopropylmethyl-11-deoxy-11-[carboxy-(4-fluorophenethylamino)]-6-O-methyl-erthromycin A 11,12-(cyclic carbamate)]
6 | – | 8.34 | 3',3 -N-Bisdesmethyl-3'-N-cyclopropylmethyl-3'-N-4-hydroxymethyl-(2-furylmethyl-11-Deoxy-11-[carboxy-(3,4-dichlorophenethylamino)]-6-O-methyl-erythromycinA 11,12-(cyclic carbamate) [Example 21]
7 | 3.98 nM | – | CC[C@H]1OC(=O)[C@H](C)[C@@H](O[C@H]2C[C@@](C)(OC)[C@@H](O)[C@H](C)O2)[C@H](C)[C@@H](O[C@@H]2O[C@H](C)C[C@H](N(CCCc3ccccn3)CCCc3ccccn3)[C@H]2O)[C@](C)(OC)C[C@@H](C)C(=O)[C@H](C)[C@H]2N(CCc3ccc(Cl)c(Cl)c3)C(=O)O[C@]12C [Example 20, 3',3'-N-Bisdesmethyl-3',3'-N-bis-[3-(2-pyridyl)-propyl]-11-deoxy-11-[carboxy-(3,4-dichlorophenethylamino)]-6-O-methyl-erythromycin A 11,12-(cyclic carbamate)]
8 | 1.91 nM | – | CC[C@H]1OC(=O)[C@H](C)[C@@H](O[C@H]2C[C@@](C)(OC)[C@@H](O)[C@H](C)O2)[C@H](C)[C@@H](O[C@@H]2O[C@H](C)C[C@H](N(CCCc3ccncc3)CC3CC3)[C@H]2O)[C@](C)(OC)C[C@@H](C)C(=O)[C@H](C)[C@H]2N(CCc3ccc(Cl)c(Cl)c3)C(=O)O[C@]12C [Example 22, 3',3'-N-Bisdesmethyl-3'-N-cyclopropylmethyl-3'-N-[3-(4-pyridyl)propyl]-11-deoxy-11-[carboxy-(3,4-dichlorophenethylamino)]-6-O-methyl-erythromycin A 11,12-(cyclic carbamate)]
9 | 6.31 nM | – | CC[C@H]1OC(=O)[C@H](C)[C@@H](O[C@H]2C[C@@](C)(OC)[C@@H](O)[C@H](C)O2)[C@H](C)[C@@H](O[C@@H]2O[C@H](C)C[C@H](N(CC3CCC3)CC3CC3)[C@H]2O)[C@](C)(OC)C[C@@H](C)C(=O)[C@H](C)[C@H]2N(CCc3ccc(Cl)cc3)C(=O)O[C@]12C [Example 9, 3',3'-N-Bisdesmethyl-3'-N-cyclobutylmethyl-3'-N-cyclopropylmethyl-11-deoxy-11-[carboxy-(4-chlorophenethylamino)]-6-methyl-erythromycin A 11,12-(cycliccarbamate)]
10 | 4.17 nM | – | CC[C@H]1OC(=O)[C@H](C)[C@@H](O[C@H]2C[C@@](C)(OC)[C@@H](O)[C@H](C)O2)[C@H](C)[C@@H](O[C@@H]2O[C@H](C)C[C@H](N(CC3CC3)CC3CC3)[C@H]2O)[C@](C)(OC)C[C@@H](C)C(=O)[C@H](C)[C@H]2N(CCc3ccc(Cl)cc3)C(=O)O[C@]12C [Example 3, 3',3'-N-Bisdesmethyl-3',3'-N-biscyclolpropylmethyl-11-deoxy-11-[carboxy-(4-chlorophenetlylamino)]-6-methyl-eryromycin A 11,12-(cyclic carbamate)]
11 | – | 8.00 | 3',3'-N-Bisdesmethyl-3'-N-cyclopropylmethyl-3'-N-(2-furyl)methyl-11-deoxy-11-[carboxy-(3-chloro-4-fluorophenethylamino)]-6-O-methyl-erythromycin A 11,12-(cyclic carbamate) [Example 24]
12 | – | 8.58 | 3',3'-N-Bisdesmethyl-3'-N-cyclopropylmethyl-3'-N-(6-methyl-2-pyridyl)methyl-11-deoxy-11-[carboxy-(3-chloro-4-fluorophenethylamino)]-6-O-methyl-erythromycin A 11,12-(cyclic carbamate) [Example 25]
13 | 2.51 nM | – | CC[C@H]1OC(=O)[C@H](C)[C@@H](O[C@H]2C[C@@](C)(OC)[C@@H](O)[C@H](C)O2)[C@H](C)[C@@H](O[C@@H]2O[C@H](C)C[C@H](N(CC)C(C)C)[C@H]2O)[C@](C)(OC)C[C@@H](C)C(=O)[C@H](C)[C@H]2N(CCc3ccc(Cl)cc3)C(=O)O[C@]12C [Example 8, 3',3'-N-Bisdesmethyl-3'-N-ethyl-3'-N-isopropyl-11-deoxy-11-[carboxy-(4-chlorophenethylamino)]-6-O-methyl-erythromycin A 11,12-(cyclic carbamate)]

Row | Molecule | Ki | pKI (receptor binding affinity)
14 | 3',3'-N-Bisdesmethyl-3'-N-cyclopentyl-3'-N-cyclopropylmethyl-11-deoxy-11-[carboxy-(3-chloro-4-fluorophenethylamino)]-6-O-methyl-erythromycin A 11,12-(cyclic carbamate) [Example 16] | – | 8.87
